The term IC50 denotes the concentration needed to halve the response being measured.

The target of experiment [1] is T1, Mtb alanine racemase (Alr) (Mycobacterium tuberculosis, UniProt P9WQA9). The experiment is described as follows: […]; Michaelis-Menten kinetics. The format is biochemical.
Experiment [2] has as its target T1, Mtb alanine racemase (Alr).

T1 sequence (P9WQA9 whole entry): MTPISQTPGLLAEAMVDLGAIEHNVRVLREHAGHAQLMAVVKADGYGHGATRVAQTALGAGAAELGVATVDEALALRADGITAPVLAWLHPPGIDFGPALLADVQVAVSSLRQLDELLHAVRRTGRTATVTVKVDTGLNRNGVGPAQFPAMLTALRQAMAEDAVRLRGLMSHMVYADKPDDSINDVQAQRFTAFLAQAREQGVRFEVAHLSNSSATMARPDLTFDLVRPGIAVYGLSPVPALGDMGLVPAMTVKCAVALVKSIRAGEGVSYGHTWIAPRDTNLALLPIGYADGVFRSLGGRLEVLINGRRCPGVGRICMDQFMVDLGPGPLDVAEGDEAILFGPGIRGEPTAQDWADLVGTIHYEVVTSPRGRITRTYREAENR

In turn, `CCOC(=O)[C@H](CCc1ccccc1)N[C@H]1CCc2ccccc2N(CC(=O)O)C1=O` [benazepril] came in with an IC50 in experiment [1] of 300 µM.
Take `C[C@@H](N)C(=O)O` [D-alanine]: in experiment [2], the “Michaelis-Menten kinetics of purified Alr in the coupled NADH fluorescence assay” value was “Varying the concentration of D-alanine yielded conventional Michaelis–Menten kinetics for Alr”.
